The nature of series [1]: Dissociation constant, pKa of the compound by capillary electrophoresis method. It is filed as physicochemical.
Series [2] in a line: Drug degradation of the compound at 40 degC/89 % relative humidity. It is filed as physicochemical. The settings on record: read-out: Drug degradation.

For orientation: pKa means the negative logarithm of the acid dissociation constant. Low readings indicate a group that gives up its proton readily, high ones a group that holds its proton tightly. In the case of `C[C@@]1(c2ccccc2F)CCOC(N)=N1`, the pKa in series [1] turned out to be 9.8.

Take `C[C@@]1(c2cc(NC(=O)c3ccc(C#N)cn3)ccc2F)C=C(CF)OC(N)=N1`: in series [2], the degraded turned out to be 0.06%.

For the origin of these results see ChEMBL document CHEMBL4190390, “Rational Design of Novel 1,3-Oxazine Based β-Secretase (BACE1) Inhibitors: Incorporation of a Double Bond To Reduce P-gp Efflux Leading to Robust Aβ Reduction in the Brain” (J Med Chem, 2018).
